Data: PubChem BioAssay AID1963958 (Molecular Pharmacology Branch, DTP, NCI, 2024)
Blank lines part the entries; values can stand above or below the compound they belong to.

System: MDA-MB-231 multicell spheroids, viability
Assay: Anticancer human tumor MDA-MB-231 cell line growth inhibition [PI3K];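 further: spheroids exposed to agents for seven days before reading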;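 on viability, T/C: percent of vehicle control luminescence with DMSO treated spheroids as 100%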
Conditions: for IC50: curve of first compound; for viability, T/C: stronger effect = lower value
Summary of the method: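 High-throughput combination screen: PI3K inhibitors crossed with targeted small molecules on complex spheroids of tumor cells, HUVEC and MSCs at 37 degrees C, 5% CO2. Top concentration was at or near clinical Cmax (otherwise 10 microM), with half-log decrements.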

[1] = second compound 0.00316 µM, first compound 0.0316 µM
[2] = second compound 0.00316 µM, first compound 0.1 µM
[3] = second compound 0.00316 µM, first compound 0.316 µM
[4] = second compound 0.00316 µM, first compound 1 µM
[5] = second compound 0.00316 µM, first compound 3.16 µM
[6] = second compound 0.00316 µM, first compound 10 µM
[7] = second compound 0.01 µM, first compound 0.0316 µM
[8] = second compound 0.01 µM, first compound 0.1 µM
[9] = second compound 0.01 µM, first compound 0.316 µM
[10] = second compound 0.01 µM, first compound 1 µM
[11] = second compound 0.01 µM, first compound 3.16 µM
[12] = second compound 0.01 µM, first compound 10 µM
[13] = second compound 0.0316 µM, first compound 0.0316 µM
[14] = second compound 0.0316 µM, first compound 0.1 µM
[15] = second compound 0.0316 µM, first compound 0.316 µM
[16] = second compound 0.0316 µM, first compound 1 µM
[17] = second compound 0.0316 µM, first compound 3.16 µM
[18] = second compound 0.0316 µM, first compound 10 µM
[19] = second compound 0.1 µM, first compound 0.0316 µM
[20] = second compound 0.1 µM, first compound 0.1 µM
[21] = second compound 0.1 µM, first compound 0.316 µM
[22] = second compound 0.1 µM, first compound 1 µM
[23] = second compound 0.1 µM, first compound 3.16 µM
[24] = second compound 0.1 µM, first compound 10 µM
[25] = second compound 0.316 µM, first compound 0.0316 µM
[26] = second compound 0.316 µM, first compound 0.1 µM
[27] = second compound 0.316 µM, first compound 0.316 µM
[28] = second compound 0.316 µM, first compound 1 µM
[29] = second compound 0.316 µM, first compound 3.16 µM
[30] = second compound 0.316 µM, first compound 10 µM
[31] = second compound 1 µM, first compound 0.0316 µM
[32] = second compound 1 µM, first compound 0.1 µM
[33] = second compound 1 µM, first compound 0.316 µM
[34] = second compound 1 µM, first compound 1 µM
[35] = second compound 1 µM, first compound 3.16 µM
[36] = second compound 1 µM, first compound 10 µM

IC50 (second compound 0.00316 µM): > 10000 nM
IC50 (second compound 0.01 µM): 8600 nM
IC50 (second compound 0.0316 µM): 2020 nM
IC50 (second compound 0.1 µM): < 31.6 nM
IC50 (second compound 0.316 µM): < 31.6 nM
IC50 (second compound 1 µM): < 31.6 nM
SMILES: C#Cc1c(F)ccc2cc(O)cc(-c3ncc4c(N5CC6CCC(C5)N6)nc(OCC56CCCN5CC(F)C6)nc4c3F)c12 (stereo not drawn) + COc1c(OCCCN2CCOCC2)ccc2c3n(c(=NC(=O)c4cnc(N)nc4)nc12)CCN3
viability, T/C [1]: 96%
viability, T/C [2]: 101%
viability, T/C [3]: 81.7%
viability, T/C [4]: 88.4%
viability, T/C [5]: 78.4%
viability, T/C [6]: 52.7%
viability, T/C [7]: 77.9%
viability, T/C [8]: 77.8%
viability, T/C [9]: 72.9%
viability, T/C [10]: 74.2%
viability, T/C [11]: 66.3%
viability, T/C [12]: 47.5%
viability, T/C [13]: 60.6%
viability, T/C [14]: 56.3%
viability, T/C [15]: 60.5%
viability, T/C [16]: 54.6%
viability, T/C [17]: 45.7%
viability, T/C [18]: 35%
viability, T/C [19]: 47%
viability, T/C [20]: 46.7%
viability, T/C [21]: 46.9%
viability, T/C [22]: 40.8%
viability, T/C [23]: 33%
viability, T/C [24]: 21.5%
viability, T/C [25]: 32.2%
viability, T/C [26]: 31.5%
viability, T/C [27]: 26.4%
viability, T/C [28]: 23.4%
viability, T/C [29]: 18.1%
viability, T/C [30]: 13.3%
viability, T/C [31]: 24.8%
viability, T/C [32]: 23.1%
viability, T/C [33]: 20.2%
viability, T/C [34]: 16.8%
viability, T/C [35]: 15.1%
viability, T/C [36]: 10.4%

IC50 (second compound 0.00316 µM): > 10000 nM
IC50 (second compound 0.01 µM): > 10000 nM
IC50 (second compound 0.0316 µM): > 10000 nM
IC50 (second compound 0.1 µM): < 31.6 nM
IC50 (second compound 0.316 µM): < 31.6 nM
IC50 (second compound 1 µM): < 31.6 nM
SMILES: C=CC(=O)N1CCN(c2nc(=O)n(-c3c(C)ccnc3C(C)C)c3nc(-c4c(O)cccc4F)c(F)cc23)C(C)C1 (stereo not drawn) + COc1c(OCCCN2CCOCC2)ccc2c3n(c(=NC(=O)c4cnc(N)nc4)nc12)CCN3
viability, T/C [1]: 94.2%
viability, T/C [2]: 91.6%
viability, T/C [3]: 104%
viability, T/C [4]: 112%
viability, T/C [5]: 122%
viability, T/C [6]: 105%
viability, T/C [7]: 83.5%
viability, T/C [8]: 82.7%
viability, T/C [9]: 85.4%
viability, T/C [10]: 93.2%
viability, T/C [11]: 103%
viability, T/C [12]: 85.8%
viability, T/C [13]: 59.1%
viability, T/C [14]: 58.9%
viability, T/C [15]: 61.6%
viability, T/C [16]: 62.5%
viability, T/C [17]: 64.8%
viability, T/C [18]: 48%
viability, T/C [19]: 42.3%
viability, T/C [20]: 45.3%
viability, T/C [21]: 46.7%
viability, T/C [22]: 46.1%
viability, T/C [23]: 45.7%
viability, T/C [24]: 33.6%
viability, T/C [25]: 31.1%
viability, T/C [26]: 31.4%
viability, T/C [27]: 32.7%
viability, T/C [28]: 31.7%
viability, T/C [29]: 27.6%
viability, T/C [30]: 26.7%
viability, T/C [31]: 24.8%
viability, T/C [32]: 24.3%
viability, T/C [33]: 23.2%
viability, T/C [34]: 26.3%
viability, T/C [35]: 29.3%
viability, T/C [36]: 25.7%

IC50 (second compound 0.00316 µM): > 10000 nM
IC50 (second compound 0.01 µM): > 10000 nM
IC50 (second compound 0.0316 µM): > 10000 nM
IC50 (second compound 0.1 µM): < 31.6 nM
IC50 (second compound 0.316 µM): < 31.6 nM
IC50 (second compound 1 µM): < 31.6 nM
SMILES: CC(Cn1ccc(-c2ccc(C#N)c(Cl)c2)n1)NC(=O)c1cc(C(C)O)[nH]n1 (stereo not drawn) + COc1c(OCCCN2CCOCC2)ccc2c3n(c(=NC(=O)c4cnc(N)nc4)nc12)CCN3
viability, T/C [1]: 90%
viability, T/C [2]: 93.5%
viability, T/C [3]: 106%
viability, T/C [4]: 96.9%
viability, T/C [5]: 91.9%
viability, T/C [6]: 84.2%
viability, T/C [7]: 76.8%
viability, T/C [8]: 83.2%
viability, T/C [9]: 80.1%
viability, T/C [10]: 82.6%
viability, T/C [11]: 77.6%
viability, T/C [12]: 67.9%
viability, T/C [13]: 60.8%
viability, T/C [14]: 63.9%
viability, T/C [15]: 60.8%
viability, T/C [16]: 62.5%
viability, T/C [17]: 55%
viability, T/C [18]: 46.2%
viability, T/C [19]: 44.4%
viability, T/C [20]: 47.1%
viability, T/C [21]: 44.1%
viability, T/C [22]: 47.3%
viability, T/C [23]: 45.1%
viability, T/C [24]: 37.6%
viability, T/C [25]: 31.6%
viability, T/C [26]: 30.3%
viability, T/C [27]: 31.4%
viability, T/C [28]: 32%
viability, T/C [29]: 29.6%
viability, T/C [30]: 26.1%
viability, T/C [31]: 24.4%
viability, T/C [32]: 24.8%
viability, T/C [33]: 24.6%
viability, T/C [34]: 25.3%
viability, T/C [35]: 24.8%
viability, T/C [36]: 22.4%

IC50 (second compound 0.00316 µM): 3280 nM
IC50 (second compound 0.01 µM): < 31.6 nM
IC50 (second compound 0.0316 µM): < 31.6 nM
IC50 (second compound 0.1 µM): < 31.6 nM
IC50 (second compound 0.316 µM): < 31.6 nM
IC50 (second compound 1 µM): < 31.6 nM
SMILES: CC1(C)CCC(Nc2ncc(C(F)(F)F)c(-c3c[nH]c4c(P(C)(C)=O)c(C#N)ccc34)n2)CN1 (stereo not drawn) + COc1c(OCCCN2CCOCC2)ccc2c3n(c(=NC(=O)c4cnc(N)nc4)nc12)CCN3
viability, T/C [1]: 52.3%
viability, T/C [2]: 45%
viability, T/C [3]: 49.5%
viability, T/C [4]: 55%
viability, T/C [5]: 55.7%
viability, T/C [6]: 4.47%
viability, T/C [7]: 48.4%
viability, T/C [8]: 43.3%
viability, T/C [9]: 45.8%
viability, T/C [10]: 50.7%
viability, T/C [11]: 45.2%
viability, T/C [12]: 3.69%
viability, T/C [13]: 42.3%
viability, T/C [14]: 43.2%
viability, T/C [15]: 38.2%
viability, T/C [16]: 41.5%
viability, T/C [17]: 38.8%
viability, T/C [18]: 3.49%
viability, T/C [19]: 35.4%
viability, T/C [20]: 31.1%
viability, T/C [21]: 31.5%
viability, T/C [22]: 30.6%
viability, T/C [23]: 30.7%
viability, T/C [24]: 3.64%
viability, T/C [25]: 24.9%
viability, T/C [26]: 23.2%
viability, T/C [27]: 23.9%
viability, T/C [28]: 24.6%
viability, T/C [29]: 24.8%
viability, T/C [30]: 2.87%
viability, T/C [31]: 21.9%
viability, T/C [32]: 20.9%
viability, T/C [33]: 20.7%
viability, T/C [34]: 22%
viability, T/C [35]: 21.9%
viability, T/C [36]: 2.6%
